Laboratory results as given in patent US3974277A, “2-[2-(5-Nitro-2-furyl)vinyl]-4-(anilino)quinazolines as growth promotants and feed efficiency enhancing agents” (Diamond Shamrock Corporation, priority 1975, dated 1976).
Positions of bridges follow the written chain, without caps; N, C: chain ends. Non-standard residues stand in square brackets, D forms with d. Residues, ends and D or L forms follow the SMILES beside them. *: point of attachment. Ileψ(thiazoline)Cys = CC[C@H](C)[C@H](N)C1=N[C@H](C(=O)*)CS1; dOrn = NCCC[C@@H](N)C(=O)O

Columns and labels:
[1] = Chick growth promotion and feed efficiency at low levels, Example VIII (Table II); format: in vivo, broiler cross chicks
Description: Day old broiler cross chicks were weight equalized into groups of 8 chicks each and were placed in battery brooders. The 32 chick treatment groups (4 replicates) were fed one of the five rations described below for a 4 week period. Weekly measurements of body weights and feed consumption were made by replicate, and these measurements used to calculate weight gain and feed efficiency.
The basal ration was the basal ration used in Example VII above. The remaining five rations were obtained by mixing the indicated quantities by bacitracin (4 g/T), chlortetracycline (10 g/T), product of Example I (10 g/T), and product of Example III of U.S. Pat. No. 3,542,784 -- Burch (10 g/T) as growth promotants with the basal ration.

[2] = Chick growth promotion comparison, Example XI (Table V); format: in vivo, broiler cross chicks; details: 25 g/T, 4 weeks
Description: The growth promotion tests described in Example X were repeated with the exception that five replicates of 8 chicks each were fed the formulations described in Table V for 4 weeks.

Streptococcus faecalis = assay: Bactericide test, agar growth inhibition; format: cell-based; details: vs chlortetracycline
Description: (§1) Test formulations were examined for bactericidal and/or bacteriostatic activity against the test organisms shown in Tables A and B. These organisms were chosen as being representative of commercially important pathogens affecting animal agriculture. The antibiotic chlortetracycline was chosen as a positive control, since it has a broad spectrum of activity against a large number of organisms, and its activity can be used for comparative purposes.
(§2) Basic test formulations of the product of Examples I, II, III, and of chlortetracycline were prepared by dissolving 16 mg (0.016 g) in 2.0 ml of stock emulsifier solution (0.25% Triton X-155 in acetone by volume) and making each solution up to 50 ml with deionized water. The concentration of the test compound in the basic formuation was 320 ppm. Lower concentrations of the test compound were obtained by diluting the basic formulation with a 4% solution of the stock emulsifier in deionized water so that each dilution in the series differed only in test compound content.
Nutrient-tryptic soy agar (NTA) consisting of 2.0% Difco Bactoagar 0.8% nutrient broth (Difco), and 0.5% tryptic soy broth (Difco) was prepared and sterilized by autoclaving. A 2 ml aliquot of each test formulation was added to 8 ml of molten NTA. This mixture was then plated in a sterile polystyrene petri dish (100 × 15 mm). After the agar was set, suspensions of each of the test organisms were simultaneously streaked into the surface of the agar. The inoculated plates were incubated for 48 hr at 28°C. The inhibition of growth of each organism was rated by visual comparison with the organism developing on non-treated agar. Growth inhibition reported as per cent control was rated in three categories as follows: 0% control, growth equivalent to that on non-treated agar; 50% control, sparse development and separated colonies; 100% control, no visible growth or development of colonies. […]

[3] = test system: Bordetella bronchiseptica; assay: Bactericide test, agar growth inhibition; format: cell-based; details: vs chlortetracycline
Description: as §1, §2
(§3) Nutrient-tryptic soy agar (NTA) consisting of 2.0% Difco Bactoagar 0.8% nutrient broth (Difco), and 0.5% tryptic soy broth (Difco) was prepared and sterilized by autoclaving. A 2 ml aliquot of each test formulation was added to 8 ml of molten NTA. This mixture was then plated in a sterile polystyrene petri dish (100 × 15 mm). After the agar was set, suspensions of each of the test organisms were simultaneously streaked into the surface of the agar. The inoculated plates were incubated for 48 hr at 28°C. The inhibition of growth of each organism was rated by visual comparison with the organism developing on non-treated agar. Growth inhibition reported as per cent control was rated in three categories as follows: 0% control, growth equivalent to that on non-treated agar; 50% control, sparse development and separated colonies; 100% control, no visible growth or development of colonies.

[4] = test system: Erysipelothrix rhusiopathiae; assay: Bactericide test, agar growth inhibition; format: cell-based; details: vs chlortetracycline
Description: as §1, §2, §3

Streptococcus agalactiae = assay: Bactericide test, agar growth inhibition; format: cell-based; details: vs chlortetracycline
Description: as §1, §2, §3

Streptococcus group E = assay: Bactericide test, agar growth inhibition; format: cell-based; details: vs chlortetracycline
Description: as §1, §2, §3

Vibrio coli = assay: Bactericide test, agar growth inhibition; format: cell-based; details: vs chlortetracycline
Description: as §1, §2, §3

[5] = Chick growth promotion titration dosage, Example IX (Table III); format: in vivo, broiler cross chicks
Description: The concentrations used in this test were 6.25, 12.5, 25, 50, 100, 200 and 400 g of the Product of Example I per ton of the Basal Ration described in Example VII above. The same number and size chick treatment groups were used in this test as in Example VIII above.

[6] = Chick growth promotion, Example XII first test (Table VI); format: in vivo, broiler cross chicks; details: first set of tests, 25 g/T
Description: (§4) The growth promotion tests described in Example X were repeated with the additional testing the products of Examples II and III.

[7] = Chick growth promotion, Example XII repeat test (Table VII); format: in vivo, broiler cross chicks; details: second set of tests, 25 g/T
Description: as §4

[8] = Swine growth rate and feed efficiency, Example XIII (Table VIII); format: in vivo, weanling pigs; details: 25 g/T
Description: Thirty-six weanling pigs weighing approximately 30 pounds each in good physical condition and originating from a common source were used in these tests. The pigs were allocated into sex and weight equalized pens of six pigs each. A 1 week period was allowed for acclimatization before testing. Three replicates of six pigs were fed the basal ration described below, and three replicates were fed the same basal ration supplemented with 25 g/T of the product of Example I.
The basal ration was a 17% commercial corn-soya pelletized formulation which was free of antibiotic and drug components. Composition of the basal ration formulation was: […]
The rations were offered ad libitum from 6 bushel self-feeders with a continuous supply of fresh water. The same ration formulations were used throughout the 6 week feeding period. Individual pig weighing were made after 0, 2, 4 and 6 (termination) week periods. Feed consumption records were kept on a pen basis, with feed efficiency conversion being compiled at the end of the 2nd, 4th and 6th (termination) week of feeding. Complete morbidity and mortality records were kept.

[9] = Chick growth promotion comparison, Example X (Table IV); format: in vivo, broiler cross chicks; details: 25 g/T
Description: This example compares growth promotion activity of the product of Example I with other growth promotants at a concentration of 25 g/T in the Basal Ration described in Example VII. The other growth promotants include the product described in Example I of U.S. Pat. No. 3,542,784 -- Burch and quinoxaline-1,4-dioxide. Day old broiler cross chicks were weight equalized into groups of 8 chicks each, and four replicates of 8 chicks each were fed the experimental rations over a 4 week period.

Compound	effectiveness compared with chlortetracycline (Streptococcus faecalis)	effectiveness compared with chlortetracycline [3]	effectiveness compared with chlortetracycline [4]	effectiveness compared with chlortetracycline (Streptococcus agalactiae)	effectiveness compared with chlortetracycline (Streptococcus group E)	effectiveness compared with chlortetracycline (Vibrio coli)	effect on growth rate and feed efficiency (in words) [6]	effect on growth rate and feed efficiency (in words) [7]	further results
CC[C@H](C)[C@H](N)C1=N[C@H](C(=O)N[C@@H](CC(C)C)C(=O)N[C@H](CCC(=O)O)C(=O)N[C@H](C(=O)N[C@H]2CCCCNC(=O)[C@H](CC(N)=O)NC(=O)[C@@H](CC(=O)O)NC(=O)[C@H](Cc3cnc[nH]3)NC(=O)[C@@H](Cc3ccccc3)NC(=O)[C@H]([C@@H](C)CC)NC(=O)[C@@H](CCCN)NC2=O)[C@@H](C)CC)CS1 [Bacitracin] ({Ileψ(thiazoline)Cys}-L[dE]IK[dOrn]I[dF]H[dD]N; lactam 4-C)	–	–	–	–	–	–	–	–	Improved Response Over Basal Ration, Feed Efficiency ([1]; 4 g/T, 4 weeks): +1.2%; Improved Response Over Basal Ration, Gain ([1]; 4 g/T, 4 weeks): -2.3%; Improved Response Over Basal Ration, Feed Efficiency [2]: +3.1%; Improved Response Over Basal Ration, Gain [2]: +1.2%
O=[N+]([O-])c1ccc(C=Cc2nc(Nc3ccccc3)c3ccccc3n2)o1 [Example IV, 2-[2-(5-nitro-2-furyl)vinyl]-4-anilinoquinazoline]	considerably more effective	considerably more effective	considerably more effective	considerably more effective	considerably more effective	considerably more effective	–	–	–
O=[N+]([O-])c1ccc(C=Cc2nc(Nc3ccc(O)cc3)c3ccccc3n2)o1 [Example I, 2-[2-(5-nitro-2-furyl)vinyl]-4-(p-hydroxyanilino)quinazoline]	considerably more effective	considerably more effective	considerably more effective	considerably more effective	considerably more effective	considerably more effective	moderate improvements in production parameters in both tests	moderate improvements in production parameters in both tests	growth promotion (in words) ([1]; low levels in feed): greater growth promotion than any of the other growth promotants; weight gain (in words) ([5]; 100 g/T): unexplained absence of weight gain improvement; activity (in words) ([5]; 400 g/T): sharp downturn; growth and feed efficiency (in words) [8]: very substantial growth improvement and enhanced feed efficiency
O=[N+]([O-])c1ccc(-c2nc(Nc3ccc(O)cc3)c3ccccc3n2)o1 [Example III of U.S. 3,542,784 - Burch, 2-(5-nitro-2-furyl)-4-(p-hydroxyanilino)quinazoline, reference compound]	–	–	–	–	–	–	essentially no effect on growth rate or feed efficiency in either test	essentially no effect on growth rate or feed efficiency in either test	–
O=[N+]([O-])c1ccc(C=Cc2nc(Nc3cccc(O)c3)c3ccccc3n2)o1 [Example II, 2-[2-(5-nitro-2-furyl)vinyl]-4-(m-hydroxyanilino)quinazoline]	considerably more effective	considerably more effective	considerably more effective	considerably more effective	considerably more effective	considerably more effective	moderate improvements	–	–
[O-][n+]1cc[n+]([O-])c2ccccc21 [Quinoxaline-1,4-dioxide, quinoxaline-1,4-dioxide]	–	–	–	–	–	–	–	–	response in growth rate and feed efficiency (in words) [9]: did not have any apparent effect
